How the values were obtained:
Assay type in all cases: in vivo
[1] = system: transplanted Oryza sativa; assay: Test Example 1: effect on crop, application before weed generation in submerged conditions; details: Application herbicide amount 320 g/ha; Seventeenth Table
In short: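 Alluvial soil in Wagner pots flooded to 4 cm water depth; weed seeds sown and 2.5 leaf stage rice seedlings transplanted. Emulsion diluted in water applied to water surface on sowing day at stated g/ha. Greenhouse 25° C. to 30° C.; effects scored 0–5 by herbicidal ratio after three weeks.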

[2] = system: Echinochloa oryzacola Vasing.; assay: Test Example 2: herbicidal activity, application during weed generation in submerged conditions; details: Eighteenth Table; application herbicide amount 320 g/ha
In short: (§1)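 Alluvial soil in Wagner pots flooded to 4 cm water depth; seeds sown mixed, grown in greenhouse at 25–30 °C. At one- to two-leaf stage, emulsion diluted with water to the set rate (g/ha) was applied to the water surface. Effect scored 0–5 by herbicidal ratio three weeks later.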

[3] = system: Monochoria vaginalis; assay: as above; details: Eighteenth Table; application herbicide amount 320 g/ha
In short: as §1

[4] = system: Scirpus juncoides; assay: as above; details: Eighteenth Table; application herbicide amount 320 g/ha
In short: as §1

[5] = system: Cyperus difformis; assay: Test Example 3: herbicidal effect by application to foliage (Wagner pot, water depth 0.1-0.5 cm); details: Nineteenth Table; application to foliage; application herbicide amount 320 g/ha
In short: (§2)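 Alluvial soil in 1/10000 are Wagner pots, sown and grown 14 days in a 25–30 °C greenhouse. An emulsifiable concentrate diluted in water to the set dose (g/ha) was sprayed on stems and leaves. Effect scored three weeks later on a 0–5 scale: 5 = ≥90% herbicidal ratio, 0 = ≤5%.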

[6] = system: Echinochloa crus-galli var. crus-galli; assay: as above; details: Nineteenth Table; application to foliage; application herbicide amount 320 g/ha
In short: as §2

[7] = system: Leptochloa chinensis; assay: as above; details: Nineteenth Table; application to foliage; application herbicide amount 320 g/ha
In short: as §2

Row | SMILES | a: transplanted Oryza sativa (effect on crop grade) [1] | A (Echinochloa oryzicola Vasing.) herbicidal ratio grade [2] | C (Monochoria vaginalis) herbicidal ratio grade [3] | B (Scirpus juncoides) herbicidal ratio grade [4] | E (herbicidal effect grade) [5] | H (herbicidal effect grade) [6] | D (herbicidal effect grade) [7]
1 | COCCOCc1nnc2c(C(=O)Nc3nnnn3C)ccc(C(F)(F)F)n12 [2-014] | 4 (Herbicidal ratio of 70% or more and less than 90%) | 5 (Herbicidal ratio of 90% or more (almost completely withered)) | 5 (Herbicidal ratio of 90% or more (almost completely withered)) | 5 (Herbicidal ratio of 90% or more (almost completely withered)) | 5 (Herbicidal ratio of 90% or more (almost completely withered)) | 5 (Herbicidal ratio of 90% or more (almost completely withered)) | 5 (Herbicidal ratio of 90% or more (almost completely withered))
2 | Cn1nnnc1NC(=O)c1ccc(C(F)(F)F)n2c(COCC(F)(F)F)nnc12 [2-015] | 1 (Herbicidal ratio of 5% or more and less than 20%) | 4 (Herbicidal ratio of 70% or more and less than 90%) | 4 (Herbicidal ratio of 70% or more and less than 90%) | 5 (Herbicidal ratio of 90% or more (almost completely withered)) | 5 (Herbicidal ratio of 90% or more (almost completely withered)) | 5 (Herbicidal ratio of 90% or more (almost completely withered)) | 5 (Herbicidal ratio of 90% or more (almost completely withered))
3 | CCC(C)c1nnc2c(C(=O)Nc3nnnn3C)ccc(C(F)(F)F)n12 (stereo not shown) [2-016] | 4 (Herbicidal ratio of 70% or more and less than 90%) | 5 (Herbicidal ratio of 90% or more (almost completely withered)) | 5 (Herbicidal ratio of 90% or more (almost completely withered)) | 5 (Herbicidal ratio of 90% or more (almost completely withered)) | 5 (Herbicidal ratio of 90% or more (almost completely withered)) | 5 (Herbicidal ratio of 90% or more (almost completely withered)) | 5 (Herbicidal ratio of 90% or more (almost completely withered))
4 | Cc1cc(-c2nnc3c(C(=O)Nc4nnnn4C)ccc(C(F)(F)F)n23)no1 [2-017] | 4 (Herbicidal ratio of 70% or more and less than 90%) | 5 (Herbicidal ratio of 90% or more (almost completely withered)) | 4 (Herbicidal ratio of 70% or more and less than 90%) | 4 (Herbicidal ratio of 70% or more and less than 90%) | 5 (Herbicidal ratio of 90% or more (almost completely withered)) | 5 (Herbicidal ratio of 90% or more (almost completely withered)) | 5 (Herbicidal ratio of 90% or more (almost completely withered))
5 | CCCc1nnc2c(C(=O)Nc3nnnn3C)ccc(C(F)(F)F)n12 [2-019] | 2 (Herbicidal ratio of 20% or more and less than 40%) | 4 (Herbicidal ratio of 70% or more and less than 90%) | 4 (Herbicidal ratio of 70% or more and less than 90%) | 3 (Herbicidal ratio of 40% or more and less than 70%) | 5 (Herbicidal ratio of 90% or more (almost completely withered)) | 5 (Herbicidal ratio of 90% or more (almost completely withered)) | 5 (Herbicidal ratio of 90% or more (almost completely withered))
6 | Cn1nnnc1NC(=O)c1ccc(C(F)(F)F)n2c(COc3ccccc3)nnc12 [2-020] | 1 (Herbicidal ratio of 5% or more and less than 20%) | 2 (Herbicidal ratio of 20% or more and less than 40%) | 0 (Herbicidal ratio of 5% or less (almost no effect)) | 2 (Herbicidal ratio of 20% or more and less than 40%) | 4 (Herbicidal ratio of 70% or more and less than 90%) | 4 (Herbicidal ratio of 70% or more and less than 90%) | 4 (Herbicidal ratio of 70% or more and less than 90%)
7 | Cn1nnnc1NC(=O)c1ccc(C(F)(F)F)n2c(C3CCCC3)nnc12 [2-021] | 4 (Herbicidal ratio of 70% or more and less than 90%) | 5 (Herbicidal ratio of 90% or more (almost completely withered)) | 4 (Herbicidal ratio of 70% or more and less than 90%) | 4 (Herbicidal ratio of 70% or more and less than 90%) | 5 (Herbicidal ratio of 90% or more (almost completely withered)) | 5 (Herbicidal ratio of 90% or more (almost completely withered)) | 5 (Herbicidal ratio of 90% or more (almost completely withered))
8 | Cn1nnnc1NC(=O)c1ccc(C(F)(F)F)n2c(C3CCOC3)nnc12 (stereo not shown) [2-022] | 5 (Herbicidal ratio of 90% or more (almost completely withered)) | 5 (Herbicidal ratio of 90% or more (almost completely withered)) | 4 (Herbicidal ratio of 70% or more and less than 90%) | 5 (Herbicidal ratio of 90% or more (almost completely withered)) | 5 (Herbicidal ratio of 90% or more (almost completely withered)) | 5 (Herbicidal ratio of 90% or more (almost completely withered)) | 5 (Herbicidal ratio of 90% or more (almost completely withered))
9 | CC(C)c1nnc2c(C(=O)N(C)c3nnnn3C)ccc(C(F)(F)F)n12 [2-023] | 3 (Herbicidal ratio of 40% or more and less than 70%) | 0 (Herbicidal ratio of 5% or less (almost no effect)) | 1 (Herbicidal ratio of 5% or more and less than 20%) | 1 (Herbicidal ratio of 5% or more and less than 20%) | 0 (Herbicidal ratio of 5% or less (almost no effect)) | 4 (Herbicidal ratio of 70% or more and less than 90%) | 1 (Herbicidal ratio of 5% or more and less than 20%)
10 | CCSc1nnc2c(C(=O)Nc3nnnn3C)ccc(C(F)(F)F)n12 [2-024] | 5 (Herbicidal ratio of 90% or more (almost completely withered)) | 5 (Herbicidal ratio of 90% or more (almost completely withered)) | 4 (Herbicidal ratio of 70% or more and less than 90%) | 4 (Herbicidal ratio of 70% or more and less than 90%) | 5 (Herbicidal ratio of 90% or more (almost completely withered)) | 5 (Herbicidal ratio of 90% or more (almost completely withered)) | 5 (Herbicidal ratio of 90% or more (almost completely withered))

Source: patent publication US9708314B2, “Heterocyclic amide compound” (NISSAN CHEMICAL INDUSTRIES, LTD., priority 2013, dated 2017)
